Results taken from ChEMBL document CHEMBL1135713, “Antitumor benzothiazoles. 16. Synthesis and pharmaceutical properties of antitumor 2-(4-aminophenyl)benzothiazole amino acid prodrugs” (J Med Chem, 2002).

Legend:
[1] = Delta logP; type: ADME; conditions: octanol/water
[2] = log P value in cyclohexane:buffer at pH 7.4; type: physicochemical
[3] = The compound was tested for its solubility at a pH of 10.5; type: ADME; conditions: pH 10.5; read-out: S
[4] = The compound was tested for its solubility at a pH of 8.5; type: ADME; conditions: pH 8.5; read-out: S
[5] = The compound was tested for its solubility at a pH of 9.6; type: ADME; conditions: pH 9.6; read-out: S
[6] = The compound was tested for its solubility at a pH of 7.4; type: ADME; conditions: pH 7.4; read-out: S
[7] = The compound was tested for its solubility at a pH of 5.0; type: ADME; conditions: pH 5; read-out: S
[8] = The compound was tested for its solubility at a pH of 6.3; type: ADME; conditions: pH 6.3; read-out: S

Row | delta logP [1] | logD [2] | solubility [3] [µg/mL] | solubility [4] [µg/mL] | solubility [5] [µg/mL] | solubility [6] [µg/mL] | solubility [7] [mg/mL] | solubility [8] [µg/mL] | SMILES
1 | 1.45 | 2.51 |  |  |  |  |  |  | Cc1cc(-c2nc3ccccc3s2)ccc1N
2 |  |  | 10 | 75 | 20 | 390 | > 53.2 | 7000 | Cc1cc(-c2nc3cc(F)ccc3s2)ccc1NC(=O)[C@@H](N)CCCCN.Cl.Cl
